Earlier results in patent publication US8613858B2, “Separation process” (Dupont Nutrition Biosciences APS, priority 2005, dated 2013).

Columns and labels:
[1] = characteristic properties of model compounds
[2] = characteristic properties of model compounds; remark: listed apart in the source

LogPOW [1]	SMILES	Water solubility [2]
−1.76	OCC(O)CO [Glycerol]	–
−1.67	O=C(O)CC(O)(CC(=O)O)C(=O)O [Citric acid]	–

SMILES	LogPOW [1]	Water solubility [2]
C[N+](C)(C)CC(=O)O [Betaine]	−2.93	611 mg/mL
